The substances below were run on CD8+ T cells (assay: In vitro immunogenicity: T-cell priming with aAPCs loaded with peptide/MHC and anti-CD28, multimer staining). Details: healthy donor CD8+ T cells, three stimulation cycles, multimer readout.
Type: cell-based, human
Source text: In order to obtain information regarding the immunogenicity of the TUMAPs of the present invention, the inventors performed investigations using an in vitro T-cell priming assay based on repeated stimulations of CD8+ T cells with artificial antigen presenting cells (aAPCs) loaded with peptide/MHC complexes and anti-CD28 antibody.
In order to perform in vitro stimulations by artificial antigen presenting cells loaded with peptide-MHC complex (pMHC) and anti-CD28 antibody, the inventors first isolated CD8+ T cells from fresh HLA-A*02 leukapheresis products via positive selection using CD8 microbeads (Miltenyi Biotec, Bergisch-Gladbach, Germany) of healthy donors obtained from the University clinics Mannheim, Germany, after informed consent.
PBMCs and isolated CD8+ lymphocytes were incubated in T-cell medium (TCM) until use consisting of RPMI-Glutamax (Invitrogen, Karlsruhe, Germany) supplemented with 10% heat inactivated human AB serum (PAN-Biotech, Aidenbach, Germany), 100 U/ml Penicillin/100 μg/ml Streptomycin (Cambrex, Cologne, Germany), 1 mM sodium pyruvate (CC Pro, Oberdorla, Germany), 20 µg/ml Gentamycin (Cambrex). 2.5 ng/ml IL7 (PromoCell, Heidelberg, Germany) and 10 U/ml IL-2 (Novartis Pharma, Nurnberg, Germany) were also added to the TCM at this step.
Generation of pMHC/anti-CD28 coated beads, T-cell stimulations and readout was performed in a highly defined in vitro system using four different pMHC molecules per stimulation condition and 8 different pMHC molecules per readout condition.
The purified co-stimulatory mouse IgG2a anti human CD28 Ab 9.3 (Jung et al., 1987) was chemically biotinylated using Sulfo-N-hydroxysuccinimidobiotin as recommended by the manufacturer (Perbio, Bonn, Germany). Beads used were 5.6 μm diameter streptavidin coated polystyrene particles (Bangs Laboratories, Illinois, USA).
pMHC used for positive and negative control stimulations were A*0201/MLA-001 (peptide […] (SEQ ID NO. 303) from modified Melan-A/MART-1) and A*0201/DDX5-001 ([…] from DDX5, SEQ ID NO. 304), respectively.
800.000 beads/200 μl were coated in 96-well plates in the presence of 4×12.5 ng different biotin-pMHC, washed and 600 ng biotin anti-CD28 were added subsequently in a volume of 200 μl. Stimulations were initiated in 96-well plates by co-incubating 1×10^6 CD8+ T cells with 2×10^5 washed coated beads in 200 μI TCM supplemented with 5 ng/ml IL-12 (PromoCell) for 3 days at 37° C. Half of the medium was then exchanged by fresh TCM supplemented with 80 U/ml IL-2 and incubating was continued for 4 days at 37° C. This stimulation cycle was performed for a total of three times. For the pMHC multimer readout using 8 different pMHC molecules per condition, a two-dimensional combinatorial coding approach was used as previously described (Andersen et al., 2012) with minor modifications encompassing coupling to 5 different fluorochromes. Finally, multimeric analyses were performed by staining the cells with Live/dead near IR dye (Invitrogen, Karlsruhe, Germany), CD8-FITC antibody clone SK1 (BD, Heidelberg, Germany) and fluorescent pMHC multimers. For analysis, a BD LSRII SORP cytometer equipped with appropriate lasers and filters was used. Peptide specific cells were calculated as percentage of total CD8+ cells. Evaluation of multimeric analysis was done using the FlowJo software (Tree Star, Oreg., USA). In vitro priming of specific multimer+CD8+ lymphocytes was detected by comparing to negative control stimulations.
“300 (AYVLRLETL; listed as Homo sapiens) [compound 300]” was tested, and the “Wells (in vitro immunogenicity)” value was “+ (<20% = +)”.
“296 (TYVDSSHTI; listed as Homo sapiens) [compound 296]” was tested, and the “Wells (in vitro immunogenicity)” value was “+ (<20% = +)”.
“293 (FLVDGSWSI; listed as Homo sapiens) [compound 293]” was tested, and the “Wells (in vitro immunogenicity)” value was “+ (<20% = +)”.
“291 (KLDETGNSL; listed as Homo sapiens) [compound 291]” was tested, and the “Wells (in vitro immunogenicity)” value was “+ (<20% = +)”.
For “298 (RYLEGTSCI; listed as Homo sapiens) [compound 298]”, the “Wells (in vitro immunogenicity)” value was “+ (<20% = +)”.
For “301 (AYKPGALTF; listed as Homo sapiens) [compound 301]”, the “Wells (in vitro immunogenicity)” value was “+ (<20% = +)”.
In the case of “297 (PFLQASPHF; listed as Homo sapiens) [compound 297]”, the “Wells (in vitro immunogenicity)” value is reported as “++ (20%-49% = ++)”.

Same assay, conditions: in vitro immunogenicity of HLA class I peptides; peptide-specific multimer staining after aAPC priming of CD8+ T cells
“141 (FLDKVLVAA; listed as Homo sapiens) [compound 141]” was tested, and the “Wells positive [%]” value was “+ (<20% = +)”.
In the case of “207 (AYVVFVSTL; listed as Homo sapiens) [compound 207]”, the “Wells positive [%]” value is reported as “+ (<20% = +)”.
With “18 (ILLDLTDNRL; listed as Homo sapiens) [compound 18]” the “Wells positive [%]” value was “+ (<20% = +)”.
With “197 (EYSLFPGQVVI; listed as Homo sapiens) [compound 197]” the “Wells positive [%]” value was “+ (<20% = +)”.
In the case of “31 (TITETTVEV; listed as Homo sapiens) [compound 31]”, the “Wells positive [%]” value is reported as “+ (<20% = +)”.
With “149 (ILNTHITEL; listed as Homo sapiens) [compound 149]” the “Wells positive [%]” value was “+ (<20% = +)”.
In the case of “90 (FLQDLEQRL; listed as Homo sapiens) [compound 90]”, the “Wells positive [%]” value is reported as “+ (<20% = +)”.
For “269 (YFIDSTNLKTHF; listed as Homo sapiens) [compound 269]”, the “Wells positive [%]” value was “+ (<20% = +)”.
For “196 (LYIDRPLPYL; listed as Homo sapiens) [compound 196]”, the “Wells positive [%]” value was “++++ (>=70% = ++++)”.
With “230 (KLQNIMMLL; listed as Homo sapiens) [compound 230]” the “Wells positive [%]” value was “++++ (>=70% = ++++)”.
In the case of “23 (SLFSDEFKV; listed as Homo sapiens) [compound 23]”, the “Wells positive [%]” value is reported as “++++ (>=70% = ++++)”.
With “35 (FLLPFSTVYL; listed as Homo sapiens) [compound 35]” the “Wells positive [%]” value was “+ (<20% = +)”.

Each substance was assayed on HLA-A*24 (assay: MHC binding assay (UV-ligand exchange, beta2m ELISA), HLA-A*24). Details: peptide exchange yield, binding to HLA-A*24, UV-ligand exchange, β2m ELISA.
Parameters: species or system human
Source text: Candidate peptides for T cell based therapies according to the present invention were further tested for their MHC binding capacity (affinity). The individual peptide-MHC complexes were produced by UV-ligand exchange, where a UV-sensitive peptide is cleaved upon UV-irradiation, and exchanged with the peptide of interest as analyzed. Only peptide candidates that can effectively bind and stabilize the peptide-receptive MHC molecules prevent dissociation of the MHC complexes. To determine the yield of the exchange reaction, an ELISA was performed based on the detection of the light chain (β2m) of stabilized MHC complexes. The assay was performed as generally described in Rodenko et al. (Rodenko et al., 2006).
96 well MAXISorp plates (NUNC) were coated over night with 2 ug/ml streptavidin in PBS at room temperature, washed 4× and blocked for 1 h at 37° C. in 2% BSA containing blocking buffer. Refolded HLA-A*02:01/MLA-001 monomers served as standards, covering the range of 15-500 ng/ml. Peptide-MHC monomers of the UV-exchange reaction were diluted 100 fold in blocking buffer. Samples were incubated for 1h at 37° C., washed four times, incubated with 2 ug/ml HRP conjugated anti-62m for 1 h at 37° C., washed again and detected with TMB solution that is stopped with […]. Absorption was measured at 450 nm. Candidate peptides that show a high exchange yield (preferably higher than 50%, most preferred higher than 75%) are generally preferred for a generation and production of antibodies or fragments thereof, and/or T cell receptors or fragments thereof, as they show sufficient avidity to the MHC molecules and prevent dissociation of the MHC complexes.
In the case of “194 (EFGSLHLEFL; listed as Homo sapiens) [compound 194]”, the Peptide exchange is reported as “+ (<20% = +)”.
“192 (SYALLTYMI; listed as Homo sapiens) [compound 192]” was tested, and the Peptide exchange was “++++ (>=75% = ++++)”.
“160 (VYTLDIPVL; listed as Homo sapiens) [compound 160]” was tested, and the Peptide exchange was “++++ (>=75% = ++++)”.
For “193 (RFHPTPLLL; listed as Homo sapiens) [compound 193]”, the Peptide exchange was “++++ (>=75% = ++++)”.
In the case of “186 (IFPQFLYQF; listed as Homo sapiens) [compound 186]”, the Peptide exchange is reported as “++++ (>=75% = ++++)”.
“276 (VYGFQWRHF; listed as Homo sapiens) [compound 276]” was tested, and the Peptide exchange was “++++ (>=75% = ++++)”.
With “217 (FFPPTRQMGLLF; listed as Homo sapiens) [compound 217]” the Peptide exchange was “++++ (>=75% = ++++)”.
“168 (KYQDILETI; listed as Homo sapiens) [compound 168]” was tested, and the Peptide exchange was “++++ (>=75% = ++++)”.
With “175 (YYEVHKELF; listed as Homo sapiens) [compound 175]” the Peptide exchange was “++++ (>=75% = ++++)”.
With “161 (IYLVSIPEL; listed as Homo sapiens) [compound 161]” the Peptide exchange was “++++ (>=75% = ++++)”.
For “184 (VFQNFPLLF; listed as Homo sapiens) [compound 184]”, the Peptide exchange was “++++ (>=75% = ++++)”.
With “277 (VYQGHTALL; listed as Homo sapiens) [compound 277]” the Peptide exchange was “++++ (>=75% = ++++)”.
With “227 (IFLDYEAGTLSF; listed as Homo sapiens) [compound 227]” the Peptide exchange was “++++ (>=75% = ++++)”.
In the case of “280 (RYPDNLKHLYL; listed as Homo sapiens) [compound 280]”, the Peptide exchange is reported as “++++ (>=75% = ++++)”.
“271 (LYHDIFSRL; listed as Homo sapiens) [compound 271]” was tested, and the Peptide exchange was “++++ (>=75% = ++++)”.
“179 (MYDSYWRQF; listed as Homo sapiens) [compound 179]” was tested, and the Peptide exchange was “++++ (>=75% = ++++)”.
“216 (QYSSVFKSL; listed as Homo sapiens) [compound 216]” was tested, and the Peptide exchange was “++++ (>=75% = ++++)”.
With “195 (TYSVSFPMF; listed as Homo sapiens) [compound 195]” the Peptide exchange was “++++ (>=75% = ++++)”.
In the case of “187 (TYLRDQHFL; listed as Homo sapiens) [compound 187]”, the Peptide exchange is reported as “++++ (>=75% = ++++)”.
For “211 (YYLEVGKTLI; listed as Homo sapiens) [compound 211]”, the Peptide exchange was “++++ (>=75% = ++++)”.
For “289 (KYPVEWAKF; listed as Homo sapiens) [compound 289]”, the Peptide exchange was “++++ (>=75% = ++++)”.
In the case of “172 (TYTTVPRVAF; listed as Homo sapiens) [compound 172]”, the Peptide exchange is reported as “++++ (>=75% = ++++)”.
With “181 (LYLDIINLF; listed as Homo sapiens) [compound 181]” the Peptide exchange was “++++ (>=75% = ++++)”.
With “173 (IYSWILDHF; listed as Homo sapiens) [compound 173]” the Peptide exchange was “++++ (>=75% = ++++)”.
“228 (KYTSWYVAL; listed as Homo sapiens) [compound 228]” was tested, and the Peptide exchange was “++++ (>=75% = ++++)”.
For “177 (VYPWLGALL; listed as Homo sapiens) [compound 177]”, the Peptide exchange was “++++ (>=75% = ++++)”.
For “202 (VYWDSAGAAHF; listed as Homo sapiens) [compound 202]”, the Peptide exchange was “++++ (>=75% = ++++)”.
For “210 (IYTMIYRNL; listed as Homo sapiens) [compound 210]”, the Peptide exchange was “++++ (>=75% = ++++)”.
With “166 (YYVESGKLF; listed as Homo sapiens) [compound 166]” the Peptide exchange was “++++ (>=75% = ++++)”.
With “272 (QYLQDAYSF; listed as Homo sapiens) [compound 272]” the Peptide exchange was “++++ (>=75% = ++++)”.
With “282 (KFVDSTFYL; listed as Homo sapiens) [compound 282]” the Peptide exchange was “++++ (>=75% = ++++)”.
In the case of “267 (KYMVYPQTF; listed as Homo sapiens) [compound 267]”, the Peptide exchange is reported as “++++ (>=75% = ++++)”.
In the case of “278 (RYISDQLFTNF; listed as Homo sapiens) [compound 278]”, the Peptide exchange is reported as “++++ (>=75% = ++++)”.
With “274 (AYLHSHALI; listed as Homo sapiens) [compound 274]” the Peptide exchange was “++++ (>=75% = ++++)”.

From patent publication US10004792B2, “Peptides and combination of peptides for use in immunotherapy against various cancers” (immatics biotechnologies GmbH, priority 2015, dated 2018)
